According to paper PMC12048343, “Discovery of a small molecule secreted clusterin enhancer that improves memory in Alzheimer’s disease mice” (npj Drug Discovery, 2025):
Like-named read-outs stand apart in the source and are kept apart here.

Legend:
BRD2 = BRD2 (Homo sapiens, UniProt P25440); assay: BRD2 inhibition assay; format: biochemical
BRD4 = BRD4 (Homo sapiens, UniProt O60885); assay: BRD4 inhibition assay; format: biochemical
[1] = Liver microsome stability assay; format: in vitro ADME; details: pH 7.4; human liver microsomes 0.5 mg/mL, NADPH, 37 °C, up to 120 min; read-out: Microsomal Stability t1/2
Method: An aliquot (1 µL) of test compound (1 mM, 100% DMSO) was added to an aqueous liver microsome solution (1000 µL, PBS pH 7.4, 0.5 mg/mL human liver microsomes (Thermo Fisher Scientific, Cat#HMMPL), 2 mM NADPH, 2 mM MgCl2) and incubated at 37 °C for 120 min. Aliquots (50 µL) of the microsome solution were taken at various time points (0, 5, 10, 15, 30, 60, 90, 120 min) and added to a reaction quenching solution (200 µL 100% Acetonitrile) containing an internal standard. Solutions were clarified by centrifugation (16,000 x g, 5 min), and the supernatants were transferred to new tubes and lyophilized. Samples were reconstituted in 100 µL of 50/50/0.1 (Water/Acetonitrile/Formic Acid) prior to analysis via liquid chromatography-tandem mass spectrometry (LC-MS/MS). Chromatographic peak areas normalized to the internal standard were plotted at each time point and the half-life (t1/2) of compound in liver microsomes was determined by using the trendline equation to calculate the time at which compound abundance was 50% of that at time point 0 (t0).

[2] = Plasma binding assay (dialysis); format: in vitro ADME; details: dialysis 4.5 hours, 37 °C
Method: (§1) Brain tissue was homogenized in PBS (pH 7.4) (1: 3 weight(mg)/volume(µL)) and the protein concentration was determined using the Micro BCA™ Protein Assay Kit (Thermo Fisher Scientific, Cat#23235). Brain homogenate was clarified and diluted to 20 mg/mL in PBS (pH 7.4). Either brain homogenate or plasma was and added to Slide-A-Lyzer™ MINI Dialysis Devices, 10 K MWCO dialysis cups (Thermo Fisher Scientific, Cat#PI88401) in a 48-well plate containing PBS (500 µL; pH 7.4). 1 µL of 1 mM compound was added to the brain homogenate (Final Concentration: 2 µM compound, 0.5% DMSO) and incubated on a rocker for 4.5 hours at 37 °C. 50 µL of brain homogenate or plasma (within the dialysis cup) and PBS (within the 48-well plate) were transferred to new microcentrifuge tubes containing 400 µL of quenching reagent (100% Acetonitrile) containing internal standard. Solutions were clarified by centrifugation (16,000 x g, 5 min), and the supernatants were transferred to new tubes and lyophilized. Samples were reconstituted in 100 µL of 50/50/0.1 (Water/Acetonitrile/Formic Acid) prior to analysis via liquid chromatography-tandem mass spectrometry (LC-MS/MS). The % of the unbound drug (fu,bound) was calculated using the following equation:
(§2) % Bound = [1− (PBS chromatographic peak area/ brain homogenate or plasma chromatographic peak area)] x 100

[3] = Brain tissue binding assay (dialysis); format: in vitro ADME
Method: as §1, §2

[4] = Blood-Brain Barrier (BBB) permeability assay (IAM column, Pm); format: in vitro ADME; details: pH 7.4; Pm > 1.0 = CNS+
Method: A liquid chromatography-ultraviolet/visible spectroscopy (LC-UV/Vis) assay was performed on a 1290 Infinity HPLC system (Agilent Technologies) with an HPLC column containing immobilized phosphatidylcholine (IAM.PC.DD, Regis Technologies, Cat#774011, 5 µm 300 Å 100 ×4.6 mm). The HPLC method was a mixture of 6.7 mM phosphate buffer saline (pH 7.4; solvent A) and acetonitrile (solvent B), and a gradient was used for the elution of the compounds (min/%B: 0/20, 20/60, 21/20, 30/20). The retention time of the compound (tr) and void volume time of the column (t0) were recorded. Blood-brain barrier (BBB) permeability (Pm) was calculated using the following equations as described by Yoon et al. (10.1177/1087057105281656):
KIAM = (tr − t0) / t0; Pm = (KIAM / MW^4) x 10^10
Compounds with a Pm > 1.0 were determined to be BBB permeable (CNS + ) at pH 7.

[5] = In-vivo pharmacokinetics, brain levels after oral administration; details: mice
Method: Following oral administration of compound, mice brain tissue and plasma were collected after euthanasia and perfusion at 1, 2, 4, 6 and 8 h. All animals will be euthanized by ketamine/xylazine injection to allow cardiac puncture and saline perfusion, which is consistent with recommendations of the AVMA Panel on Euthanasia. Brain tissue were homogenized in a bead beater using 5 volumes of ice-cold 80% acetonitrile (1/5; mg of brain/µL of 80% ACN). Plasma analytes were extracted using 4 volumes of ice-cold acetonitrile (1/4; µL of plasma/µL of ACN). Solutions were clarified by centrifugation (16,000 x g, 5 min) and the supernatants were transferred to new tubes and lyophilized. Samples were reconstituted in 100 µL of 50/50/0.1 (Water/Acetonitrile/Formic Acid) prior to analysis via liquid chromatography-tandem mass spectrometry (LC-MS/MS). An internal standard (IS) was added to every sample to account for compound loss during sample processing. Standards were made in drug naïve plasma and brain lysates with increasing amounts of analyte (S1,S2: 0 pmol/ S3,S4: 1 pmol/ S5,S6: 10 pmol/ S7,S8: 100 pmol, S9,S10: 1000 pmol). The standard curve was made by plotting the known amount of analyte per standard vs. the ratio of measured chromatographic peak areas corresponding to the analyte over that of the IS (analyte/IS). The trendline equation was then used to calculate the absolute concentrations of each compound in plasma and brain tissue.
Analysis of compound levels was done at the UCLA Pasarow Mass Spectrometry Lab (PMSL; Julian Whitelegge, Ph.D., Director). A targeted LC-MS/MS assay was developed for each compound using the multiple reaction monitoring (MRM) acquisition method on a 6460 triple quadrupole mass spectrometer (Agilent Technologies) coupled to a 1290 Infinity HPLC system (Agilent Technologies) with a Phenomenex analytical column (Kinetex 1.7 µm C18 100 Å 100 ×2.1 mm). The HPLC method utilized a mixture of solvent A ([…]) and solvent B ([…]) and a gradient was use for the elution of the compounds (min/%B: 0/1, 3/1, 19/99, 20/1, 30/1). Two fragment ions originating from each compound were monitored at specific LC retention times to ensure specificity and accurate quantification in the complex biological samples. The normalized chromatographic peak areas were determined by taking the ratio of measured chromatographic peak areas corresponding to each compound over that of the internal standard (Analyte/IS).

[6] = brain homogenate 20 mg/mL, 2 µM compound, dialysis 4.5 hours, 37 °C

Chain of BRD2 (P25440 whole entry): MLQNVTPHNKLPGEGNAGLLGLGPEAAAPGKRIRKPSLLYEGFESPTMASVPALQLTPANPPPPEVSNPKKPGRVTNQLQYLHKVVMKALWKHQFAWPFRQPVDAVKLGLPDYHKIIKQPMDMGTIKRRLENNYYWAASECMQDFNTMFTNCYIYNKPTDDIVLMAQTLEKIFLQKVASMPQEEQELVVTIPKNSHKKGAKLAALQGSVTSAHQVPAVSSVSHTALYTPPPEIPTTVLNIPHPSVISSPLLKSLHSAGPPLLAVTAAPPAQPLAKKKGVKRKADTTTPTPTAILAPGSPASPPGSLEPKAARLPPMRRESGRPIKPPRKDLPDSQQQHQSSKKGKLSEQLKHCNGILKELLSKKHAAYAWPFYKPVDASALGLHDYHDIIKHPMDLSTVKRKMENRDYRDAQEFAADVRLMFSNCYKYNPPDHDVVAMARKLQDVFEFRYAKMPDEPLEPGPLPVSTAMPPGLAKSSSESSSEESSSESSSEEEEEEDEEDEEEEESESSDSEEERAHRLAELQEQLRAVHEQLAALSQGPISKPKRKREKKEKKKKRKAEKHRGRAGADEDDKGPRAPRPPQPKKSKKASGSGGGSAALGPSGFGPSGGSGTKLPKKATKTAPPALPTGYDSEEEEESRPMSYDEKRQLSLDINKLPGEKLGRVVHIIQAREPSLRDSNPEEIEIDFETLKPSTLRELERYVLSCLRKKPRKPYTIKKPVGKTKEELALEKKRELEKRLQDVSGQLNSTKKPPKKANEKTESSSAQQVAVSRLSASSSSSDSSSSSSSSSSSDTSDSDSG

Compound	IC50 (BRD2) [nM]	IC50 (BRD4) [nM]	half-life at 1 µM [1] [h]	Plasma Binding [2] [% bound]	Brain Tissue Binding [3] [%]	Brain Tissue Binding [3, 6] [% bound]	PAMPA Pm [4]	unbound brain concentration versus sCLU EC50 ([5]; oral 3 mg/kg, one hour post administration)	unbound brain concentration versus sCLU EC50 ([5]; oral 10 mg/kg, one hour post administration)	maximum brain concentration (total) ([5]; oral 30 mg/kg, one hour after administration) [nM]	concentration at 1 h ([5]; mouse, oral 30 mg/kg, 1 h, from total brain level and brain tissue binding 75.3%, read-out: unbound brain concentration) [nM]	unbound brain concentration versus sCLU EC50 ([5]; oral 3, 10 or 30 mg/kg (Fig. S6))
Cc1sc2c(c1C)C(c1ccc(Cl)cc1)=N[C@@H](CC(=O)OC1CC1)c1nnc(C)n1-2 [DDL-357]	161	20	1.02	88	75.3	75	1.66	below the sCLU EC50	below the sCLU EC50	1850	457	–
Cc1sc2c(c1C)C(c1ccc(Cl)cc1)=N[C@@H](CC(=O)OC1COC1)c1nnc(C)n1-2 [DDL-356]	158	23	1.25	79	–	57	0.96	–	–	–	–	reaches higher concentrations of unbound drug in the brain above its sCLU EC50 at lower doses
